Reference: ChEMBL document CHEMBL1149432, “Evaluation of hydroxyimine as cytochrome P450-selective prodrug structure” (J Med Chem, 2006)
In brackets after ≈: the same amount, converted by molar mass.

How the values were obtained:
[1] = Chemical stability in 80% human serum (pH 7.4); assay type: physicochemical
[2] = Aqueous solubility at pH 5.0
[3] = Metabolic stability by incubation with rat liver microsomes treated with Dexamethasone; assay type: ADME, Microsome
[4] = Chemical stability at pH 5.0; assay type: physicochemical; details: buffer
[5] = Metabolic stability by incubation with rat liver microsomes treated with Phenobarbital; assay type: ADME, Microsome
[6] = Metabolic stability by incubation with rat liver microsomes; assay type: ADME, Microsome
[7] = Chemical stability at pH 7.4; assay type: physicochemical; details: buffer
[8] = Chemical stability at pH 1.0; assay type: physicochemical; details: buffer
[9] = Chemical stability at pH 9.0; assay type: physicochemical; details: buffer
[10] = Metabolic stability by incubation with rat liver microsomes treated with 3-methylcholanthrene; assay type: ADME, Microsome; details: 3-methylcholanthrene-treated
[11] = Aqueous solubility at pH 7.4
[12] = Metabolic stability by incubation with human liver microsomes; assay type: ADME, Microsome
[13] = Half life in rat urine at 37 °C; details: in vitro
[14] = Distribution coefficient at pH 7.4, log D; details: octanol/water
CYP2B6 = target: T1, CYP2B6 (Homo sapiens, UniProt P20813); experiment: Binding constant for compound binding to CYP2B6; assay type: ADME
T1 sequence (P20813 whole entry): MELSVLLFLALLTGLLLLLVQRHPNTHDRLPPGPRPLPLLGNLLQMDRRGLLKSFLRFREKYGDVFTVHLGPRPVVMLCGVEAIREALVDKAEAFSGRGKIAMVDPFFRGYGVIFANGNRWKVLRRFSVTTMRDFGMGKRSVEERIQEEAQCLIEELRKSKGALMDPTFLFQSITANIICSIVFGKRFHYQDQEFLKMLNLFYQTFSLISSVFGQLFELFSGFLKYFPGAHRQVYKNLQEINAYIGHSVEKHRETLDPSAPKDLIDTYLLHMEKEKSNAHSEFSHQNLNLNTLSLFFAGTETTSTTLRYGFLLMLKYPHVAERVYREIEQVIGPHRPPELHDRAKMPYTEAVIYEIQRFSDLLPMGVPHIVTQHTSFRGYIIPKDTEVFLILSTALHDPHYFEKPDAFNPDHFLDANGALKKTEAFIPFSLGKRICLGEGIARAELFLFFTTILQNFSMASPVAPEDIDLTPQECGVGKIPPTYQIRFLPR

[15] = Chemical stability at pH 3.0; assay type: physicochemical; details: buffer
[16] = Distribution coefficient at pH 5.0, log D; details: octanol/water

half-life [1] [h]	solubility [2] [µg/mL]	half-life [3] [h]	T1/2 [4]	half-life [5] [h]	half-life [6] [h]	T1/2 [7]	half-life [8] [h]	T1/2 [9]	half-life [10] [h]	solubility ([11]; buffer) [µg/mL]	half-life [12] [h]	half-life [13] [h]	half-life [4] [h]	logD [14]	Km (CYP2B6) [µM]	half-life [15] [h]	half-life [7] [h]	logD [16]	solubility ([11]; aqueous) [µg/mL]	Compound
796	1800 (≈ 6680 µM)	72	Not Active	84	167	Not Active	6	Not Active	100	116000 (≈ 431000 µM)	83.6	–	–	–	–	–	–	–	–	CC(C(=O)O)c1cccc(/C(=N\O)c2ccccc2)c1 (stereo not given)
591	3 (≈ 12.3 µM)	0.767	–	0.467	0.967	–	0.1	Not Active	0.0333	2 (≈ 8.22 µM)	0.85	69	16.3	3.6	70	0.183	720	3.6	–	COc1ccc2cc(CC/C(C)=N/O)ccc2c1
–	–	–	–	–	–	–	–	–	–	–	–	–	–	0.008	–	–	–	2.1	–	CC(C(=O)O)c1cccc(C(=O)c2ccccc2)c1 (stereo not given) [KETOPROFEN]
–	6.4 (≈ 28 µM)	–	–	–	–	–	–	–	–	–	–	–	–	3.3	–	–	–	3.2	4.3 (≈ 18.8 µM)	COc1ccc2cc(CCC(C)=O)ccc2c1 [NABUMETONE]
